The data set is described as follows: Water solubility. The data set is classed as physicochemical.

Data on two molecules can be found in US20170281573A1, “MEDICINAL COMPOSITION FOR ENHANCED DELIVERY OF TRITERPENES” (PHARCON INC., priority 2016, published 2017).

Each structure is given as a SMILES string. Structures can show the parent of a compound that is named as a salt.

As for `C[C@H]1[C@H](C)CC[C@]2(C(=O)O)CC[C@]3(C)C(=CC[C@@H]4[C@@]5(C)C[C@@H](O)[C@H](O)C(C)(C)[C@@H]5CC[C@]43C)[C@H]12` [Corosolic acid], the water solubility entry is listed as “below 1 mcg/ml”.
As for `C[C@H]1[C@H](C)CC[C@]2(C(=O)O)CC[C@]3(C)C(=CC[C@@H]4[C@@]5(C)C[C@@H](O)[C@H](O)C(C)(C)[C@@H]5CC[C@]43C)[C@H]12` [sodium salt of this acid], the water solubility entry is given as “less than 5 mcg/ml”.
